Experimental data published in PMC12274840 (The Journal of Biological Chemistry, 2025).
Read-outs that look alike come from different tables or passages of the source.

How the values were obtained:
[1] = system: E. coli KA797 cells carrying BlaC position 105 library; type: cell-based, Escherichia coli; details: for Fi AVG (average fitness): relative to WT Ile; for Fi AVG (average fitness) / Fi MEM AVG: average of replicates
[2] = system: E. coli KA797 cells carrying CTX-M-14 position 105 library; type: cell-based; details: CTX-M-14 WT (Tyr 105)
[3] = system: E. coli KA797 cells carrying NmcA position 105 library; type: cell-based

## C[C@@H](O)[C@H]1C(=O)N2C(C(=O)O)=C(S[C@@H]3CN[C@H](C(=O)N(C)C)C3)[C@H](C)[C@H]12 [meropenem]
[1]; AA 105 Thr (BlaC I105T)
  Fi AVG (average fitness): -0.015
[1]; AA 105 Thr, meropenem
  Significance (Fi MEM AVG): -
  Fi MEM AVG: -1.775
[1]; AA 105 Thr, meropenem, replicate 1
  Fi MEM 1: -1.838
[1]; AA 105 Thr, meropenem, replicate 2
  Fi MEM 2: -2.332
[1]; AA 105 Thr, meropenem, replicate 3
  Fi MEM 3: -1.155
[1]; AA 105 Trp, meropenem
  Fi MEM AVG: -0.487
[1]; AA 105 Trp, meropenem, replicate 1
  Fi MEM 1: 0.050
[1]; AA 105 Trp, meropenem, replicate 2
  Fi MEM 2: -1.403
[1]; AA 105 Trp, meropenem, replicate 3
  Fi MEM 3: -0.109
[1]; AA 105 Tyr (BlaC I105Y)
  Fi AVG (average fitness): -0.070
[1]; AA 105 Tyr, meropenem
  Fi MEM AVG: -0.204
[1]; AA 105 Tyr, meropenem, replicate 1
  Fi MEM 1: 0.312
[1]; AA 105 Tyr, meropenem, replicate 2
  Fi MEM 2: -1.109
[1]; AA 105 Tyr, meropenem, replicate 3
  Fi MEM 3: 0.185
[1]; AA 105 Val (BlaC I105V)
  Fi AVG (average fitness): -0.016
[1]; AA 105 Val, meropenem
  Fi MEM AVG: -0.855
[1]; AA 105 Val, meropenem, replicate 1
  Fi MEM 1: 0.059
[1]; AA 105 Val, meropenem, replicate 2
  Fi MEM 2: -2.574
[1]; AA 105 Val, meropenem, replicate 3
  Fi MEM 3: -0.049
[1]; WT (Ile 105) absolute fitness, meropenem, replicate 1
  WT abs Fi 1: 0.125
[1]; WT (Ile 105) absolute fitness, meropenem, replicate 2
  WT abs Fi 2: 0.070
[1]; WT (Ile 105) absolute fitness, meropenem, replicate 3
  WT abs Fi 3: 0.109
[2]
  WT abs Fi 1 (absolute fitness of wild type, Replicate 1): -0.645
  WT abs Fi 2 (absolute fitness of wild type, Replicate 2): -0.807
[3]; NmcA AA 105 Ala
  Fi (relative fitness), Replicate 1: -0.381
  Fi AVG (average fitness of replicates): -0.261
  Significance of average fitness: -
[3]; NmcA AA 105 Arg
  Fi (relative fitness), Replicate 1: 0.092
  Fi AVG (average fitness of replicates): 0.048
[3]; NmcA AA 105 Asn
  Fi (relative fitness), Replicate 1: 0.031
  Fi AVG (average fitness of replicates): 0.087
[3]; NmcA AA 105 Asp
  Fi (relative fitness), Replicate 1: -0.205
  Fi AVG (average fitness of replicates): -0.182
  Significance of average fitness: -
[3]; NmcA AA 105 Cys
  Fi (relative fitness), Replicate 1: -0.468
  Fi AVG (average fitness of replicates): -0.282
  Significance of average fitness: -
[3]; NmcA AA 105 Gln
  Fi (relative fitness), Replicate 1: 0.037
  Fi AVG (average fitness of replicates): 0.055
[3]; NmcA AA 105 Glu
  Fi (relative fitness), Replicate 1: -0.016
  Fi AVG (average fitness of replicates): -0.061
[3]; NmcA AA 105 Gly
  Fi (relative fitness), Replicate 1: 0.015
  Fi AVG (average fitness of replicates): -0.027
[3]; NmcA AA 105 His
  Fi (relative fitness), Replicate 1: 0.000
  Fi AVG (average fitness of replicates): 0.000
[3]; NmcA AA 105 Ile
  Fi AVG (average fitness of replicates): 0.105
  Significance of average fitness: +
[3]; NmcA AA 105 Leu
  Fi (relative fitness), Replicate 1: -0.100
  Fi AVG (average fitness of replicates): -0.100
  Significance of average fitness: -
[3]; NmcA AA 105 Lys
  Fi (relative fitness), Replicate 1: -0.081
  Fi AVG (average fitness of replicates): -0.032
[3]; NmcA AA 105 Met
  Fi (relative fitness), Replicate 1: -0.00142
  Fi AVG (average fitness of replicates): 0.024
[3]; NmcA AA 105 Phe
  Fi (relative fitness), Replicate 1: 0.169
  Fi AVG (average fitness of replicates): 0.140
  Significance of average fitness: +
[3]; NmcA AA 105 Pro
  Fi (relative fitness), Replicate 1: -0.067
  Fi AVG (average fitness of replicates): -0.060
  Significance of average fitness: -
[3]; NmcA AA 105 Ser
  Fi (relative fitness), Replicate 1: -0.066
  Fi AVG (average fitness of replicates): -0.071
  Significance of average fitness: -
[3]; NmcA AA 105 Thr
  Fi (relative fitness), Replicate 1: -0.118
  Fi AVG (average fitness of replicates): -0.120
  Significance of average fitness: -
[3]; NmcA AA 105 Trp
  Fi (relative fitness), Replicate 1: 0.105
  Fi AVG (average fitness of replicates): 0.078
[3]; NmcA AA 105 Tyr
  Fi (relative fitness), Replicate 1: -0.154
  Fi AVG (average fitness of replicates): -0.163
  Significance of average fitness: -
[3]; NmcA AA 105 Val
  Fi (relative fitness), Replicate 1: -0.043
  Fi AVG (average fitness of replicates): -0.035
[3]; NmcA WT, replicate 1
  WT abs Fi 1 (absolute fitness): 0.00454
[3]; NmcA WT, replicate 2
  WT abs Fi 2 (absolute fitness): 0.092
[3]; NmcA WT, replicate 3
  WT abs Fi 3 (absolute fitness): 0.017
